Target: T1, human GPR119 (Homo sapiens, UniProt Q8TDV5)
T1 construct: expressed in transfected cells
T1 sequence (Q8TDV5 1-335): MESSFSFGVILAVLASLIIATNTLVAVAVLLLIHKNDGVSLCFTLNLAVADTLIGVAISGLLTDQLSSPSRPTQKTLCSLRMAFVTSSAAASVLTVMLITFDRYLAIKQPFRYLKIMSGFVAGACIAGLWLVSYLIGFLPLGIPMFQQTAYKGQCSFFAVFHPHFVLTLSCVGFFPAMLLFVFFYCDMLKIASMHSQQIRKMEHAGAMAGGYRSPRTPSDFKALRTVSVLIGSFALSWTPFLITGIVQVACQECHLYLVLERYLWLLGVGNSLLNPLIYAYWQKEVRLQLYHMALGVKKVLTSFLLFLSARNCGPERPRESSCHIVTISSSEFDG
Assay: Functional cellular assay measuring GPR119-mediated cAMP release (HTRF) in HEK-293 cells stably expressing recombinant human GPR119
Format: cell-based
Details: cAMP response, cell line expressing human GPR119, 30 minutes at room temperature
Procedure: Functional Cellular Assays Measuring GPR119-Mediated cAMP Release
Compounds of the invention, which are agonists of GPR119, were characterized by functional assays measuring the cAMP response of HEK-293 cell lines stably expressing recombinant GPR119 from man, mouse or rat, or by using a hamster cell line HIT-T15 expressing GPR119 endogenously. The cAMP content was determined using a kit based on homogenous time-resolved fluorescence (HTRF) from Cisbio Corp. (cat. no. 62AM4PEC). For preparation, cells were split into T175 culture flasks and grown to near confluency in medium (DMEM/10% FCS for HEK-293 cells, and F-12K medium/10% horse serum/2.5% FCS for HIT-T15 cells, respectively). Medium was then removed and cells washed with PBS lacking calcium and magnesium ions, followed by proteinase treatment with accutase (Sigma-Aldrich, cat. no. A6964). Detached cells were washed and resuspended in assay buffer (1×HBSS; 20 mM HEPES, 0.1% BSA, 2 mM IBMX) and cellular density determined. They were then diluted to 400000 cells/mL and 25 μL-aliquots dispensed to the wells of 96-well plates. For measurement, 25 μL of test compound in assay buffer was added and incubated for 30 minutes at room temperature. After addition of HTRF reagents diluted in lysis buffer, the plates were incubated for 1 hour, followed by measuring the fluorescence ratio at 665 vs. 620 nm. Potency of the agonists was quantified by determining the concentrations that caused 50% of the maximal response/activation (EC50). See Table 7 for exemplary data obtained using the cell line expressing human GPR119.

Structure (SMILES)	EC50 [nM]
CN(C)C(=O)C1NC(=O)c2cc(N3CC[C@@H](Oc4ccc(OCC5CC5)nc4)C3=O)ccc2N1C (single isomer, unassigned) [Example 1-41]	2030
CN(C)C(=O)C1NC(=O)c2cc(N3CC[C@@H](Oc4ccc(OCC5CC5)nc4)C3=O)ccc2N1C (single isomer, unassigned) [Example 1-42]	366
COC(=O)C(C)N1Cc2ccc(N3CC[C@@H](Oc4ccc(OCC5CC5)nc4)C3=O)cc2C1=O (stereo partly drawn) [Example 1-04, methyl 2-[6-[(3R)-3-[[6-(cyclopropylmethoxy)-3-pyridyl]oxy]-2-oxo-pyrrolidin-1-yl]-1-oxo-isoindolin-2-yl]propanoate]	540
COC(=O)CC1c2ccc(N3CC[C@@H](Oc4ccc(OCC5CC5)nc4)C3=O)cc2C(=O)N1C (stereo partly drawn) [Example 1-05, methyl 2-[5-[(3R)-3-[[6-(cyclopropylmethoxy)-3-pyridyl]oxy]-2-oxo-pyrrolidin-1-yl]-2-methyl-3-oxo-isoindolin-1-yl]acetate]	313
O=C1OCCC1N1Cc2ccc(N3CC[C@@H](Oc4ccc(OCC5CC5)nc4)C3=O)cc2C1=O (stereo partly drawn) [Example 1-06, 6-[(3R)-3-[[6-(cyclopropylmethoxy)-3-pyridyl]oxy]-2-oxo-pyrrolidin-1-yl]-2-(2-oxotetrahydrofuran-3-yl)isoindolin-1-one]	151
CN(C)C(=O)CC1c2ccc(N3CC[C@@H](Oc4ccc(OCC5CC5)nc4)C3=O)cc2C(=O)N1C (stereo partly drawn) [Example 1-07, 2-[5-[(3R)-3-[[6-(cyclopropylmethoxy)-3-pyridyl]oxy]-2-oxo-pyrrolidin-1-yl]-2-methyl-3-oxo-isoindolin-1-yl]-N,N-dimethyl-acetamide]	1900
CC(C)Sc1ccc(O[C@@H]2CCN(c3ccc4c(c3)C(=O)N(CC(=O)N(C)C)C4)C2=O)cn1 [Example 1-09, 2-[6-[(3R)-3-[(6-isopropylsulfanyl-3-pyridyl)oxy]-2-oxo-pyrrolidin-1-yl]-1-oxo-isoindolin-2-yl]-N,N-dimethyl-acetamide]	163
CN(C)C(=O)CN1C(=O)c2cc(N3CC[C@@H](Oc4ccc(OCC5CC5)nc4)C3=O)ccc2C1(C)C [Example 1-12, 2-[5-[(3R)-3-[[6-(cyclopropylmethoxy)-3-pyridyl]oxy]-2-oxo-pyrrolidin-1-yl]-1,1-dimethyl-3-oxo-isoindolin-2-yl]-N,N-dimethyl-acetamide]	29400
CC1c2ccc(N3CC[C@@H](Oc4ccc(OCC5CC5)nc4)C3=O)cc2C(=O)N1CC(=O)N(C)C (stereo partly drawn) [Example 1-13, 2-[5-[(3R)-3-[[6-(cyclopropylmethoxy)-3-pyridyl]oxy]-2-oxo-pyrrolidin-1-yl]-1-methyl-3-oxo-isoindolin-2-yl]-N,N-dimethyl-acetamide]	237
COC(=O)CN1C(=O)c2cc(N3CC[C@@H](Oc4ccc(OCC5CC5)nc4)C3=O)ccc2C1C (stereo partly drawn) [Example 1-15, methyl 2-[5-[(3R)-3-[[6-(cyclopropylmethoxy)-3-pyridyl]oxy]-2-oxo-pyrrolidin-1-yl]-1-methyl-3-oxo-isoindolin-2-yl]acetate]	221
CN(C)C(=O)CN1Cc2ncc(N3CC[C@@H](Oc4ccc(C(=O)CC5CC5)cc4)C3=O)cc2C1=O [Example 1-16, 2-[3-[(3R)-3-[4-(2-cyclopropylacetyl)phenoxy]-2-oxo-pyrrolidin-1-yl]-5-oxo-7H-pyrrolo[3,4-b]pyridin-6-yl]-N,N-dimethyl-acetamide]	360

More lines, now with the values ahead:

EC50 [nM]	Structure (SMILES)
89	CC(C)(C)OC(=O)CN1Cc2c(F)cc(N3CC[C@@H](Oc4ccc(OCC5CC5)nc4)C3=O)cc2C1=O [Example 1-01, Tert-butyl 2-[6-[(3R)-3-[[6-(cyclopropylmethoxy)-3-pyridyl]oxy]-2-oxo-pyrrolidin-1-yl]-4-fluoro-1-oxo-isoindolin-2-yl]acetate]
2030	CC(C(=O)O)N1Cc2ccc(N3CC[C@@H](Oc4ccc(OCC5CC5)nc4)C3=O)cc2C1=O (stereo partly drawn) [Example 1-02, 2-[6-[(3R)-3-[[6-(cyclopropylmethoxy)-3-pyridyl]oxy]-2-oxo-pyrrolidin-1-yl]-1-oxo-isoindolin-2-yl]propanoic acid]
10900	CN1C(=O)c2cc(N3CC[C@@H](Oc4ccc(OCC5CC5)nc4)C3=O)ccc2C1CC(=O)O (stereo partly drawn) [Example 1-03, 2-[5-[(3R)-3-[[6-(cyclopropylmethoxy)-3-pyridyl]oxy]-2-oxo-pyrrolidin-1-yl]-2-methyl-3-oxo-isoindolin-1-yl]acetic acid]
1050	CCCN1Cc2ccc(N3CC[C@@H](Oc4ccc(OCC5CC5)nc4)C3=O)cc2C1=O [Example 1-08, 6-[(3R)-3-[[6-(cyclopropylmethoxy)-3-pyridyl]oxy]-2-oxo-pyrrolidin-1-yl]-2-propyl-isoindolin-1-one]
267	Cn1nnc(N2Cc3ccc(N4CC[C@@H](Oc5ccc(OCC6CC6)nc5)C4=O)cc3C2=O)n1 [Example 1-10, 6-[(3R)-3-[[6-(cyclopropylmethoxy)-3-pyridyl]oxy]-2-oxo-pyrrolidin-1-yl]-2-(2-methyltetrazol-5-yl)isoindolin-1-one]
202	CN(C)C(=O)CN1Cc2ncc(N3CC[C@@H](Oc4ccc(OCC5CC5)nc4)C3=O)cc2C1=O [Example 1-11, 2-[3-[(3R)-3-[[6-(cyclopropylmethoxy)-3-pyridyl]oxy]-2-oxo-pyrrolidin-1-yl]-5-oxo-7H-pyrrolo[3,4-b]pyridin-6-yl]-N,N-dimethyl-acetamide]
4440	CC1c2ccc(N3CC[C@@H](Oc4ccc(OCC5CC5)nc4)C3=O)cc2C(=O)N1CC(=O)O (stereo partly drawn) [Example 1-14, 2-[5-[(3R)-3-[[6-(cyclopropylmethoxy)-3-pyridyl]oxy]-2-oxo-pyrrolidin-1-yl]-1-methyl-3-oxo-isoindolin-2-yl]acetic acid]
30	CS(=O)(=O)CN1Cc2c(F)cc(N3CC[C@@H](Oc4ccc(OCC5CC5)nc4)C3=O)cc2C1=O [Example 1-17, 6-[(3R)-3-[[6-(cyclopropylmethoxy)-3-pyridyl]oxy]-2-oxo-pyrrolidin-1-yl]-4-fluoro-2-(methylsulfonylmethyl)isoindolin-1-one]
65	Cn1nnc(CN2Cc3c(F)cc(N4CC[C@@H](Oc5ccc(OCC6CC6)nc5)C4=O)cc3C2=O)n1 [Example 1-18, 6-[(3R)-3-[[6-(cyclopropylmethoxy)-3-pyridyl]oxy]-2-oxo-pyrrolidin-1-yl]-4-fluoro-2-[(2-methyltetrazol-5-yl)methyl]isoindolin-1-one]
71	C[S+]([O-])CN1Cc2c(F)cc(N3CC[C@@H](Oc4ccc(OCC5CC5)nc4)C3=O)cc2C1=O (stereo partly drawn) [Example 1-19, 6-[(3R)-3-[[6-(cyclopropylmethoxy)-3-pyridyl]oxy]-2-oxo-pyrrolidin-1-yl]-4-fluoro-2-(methylsulfinylmethyl)isoindolin-1-one]
46	CSCN1Cc2c(F)cc(N3CC[C@@H](Oc4ccc(OCC5CC5)nc4)C3=O)cc2C1=O [Example 1-20, 6-[(3R)-3-[[6-(cyclopropylmethoxy)-3-pyridyl]oxy]-2-oxo-pyrrolidin-1-yl]-4-fluoro-2-(methylsulfanylmethyl)isoindolin-1-one]
346	CN(C)C(=O)CN1Cc2c(F)cc(N3CC[C@@H](Oc4ccc(OC5CC5)nc4)C3=O)cc2C1=O [Example 1-21, 2-[6-[(3R)-3-[[6-(cyclopropoxy)-3-pyridyl]oxy]-2-oxo-pyrrolidin-1-yl]-4-fluoro-1-oxo-isoindolin-2-yl]-N,N-dimethyl-acetamide]
